Assay results taken from patent US20090104278A1, “FOOD COMPOSITION FOR RECOVERY FROM FATIGUE” (Ajinomoto Co., Inc., priority 2002, published 2009).

System: CDF1 male mice
Test: Spontaneous activity for 60 minutes after 3 hours forced walking exercise (treadmill), infrared sensor
Assay type: in vivo
Conditions: oral, Bonito Extract A 1 g/kg in terms of a free amino acid amount, known components of Bonito Extract A, vs Control group
Method: Three groups (A, B and C groups) of 5-week-old CDF1 male mice, each group consisting of 8 mice (n=8 for each group), were put in a treadmill and subjected to forced walking exercise for 3 hours. Then, the mice of the respective groups were orally administrated, using a gastric sonde, with (1) Bonito Extract A, (2) Bonito Extract B, and (3) Bonito Extract C in an amount of 1 g/kg in terms of free amino acid amount in the bonito extracts. Subsequently, their spontaneous activity for 60 minutes was measured using a spontaneous activity measuring apparatus provided with an infrared sensor, and comparison with the control group (Control group which was administrated with only deionized distilled water in the same manner as the samples) was carried out. The respective samples and the distilled water were administered in amounts of 0.5 mL. The result is represented in FIG. 1.
In the Figure, *, ** and *** represent significant differences from the control group, * being at p<0.05, ** being at p<0.01, and *** being at p<0.001. “Total counts” refers to the number of times of exercising that were measured with the infrared sensor for 60 minutes.
Three groups of 5-week-old CDF1 male mice, each group consisting of 8 mice (n=8 for each group), were put in a treadmill and subjected to forced walking exercise for 3 hours. […]

Compound	recovery of spontaneous activity (Test Example 6, FIGS. 8, 9 and 10)
inosine 1-phosphate [nucleic acid]	recovery of spontaneous activity was not observed
[Cl-].[Na+] [NaCl]	recovery of spontaneous activity was not observed
